The record followed here is PubChem BioAssay AID540323 (Johns Hopkins Ion Channel Center, 2011).

pIC50: −log10 of the molar value. The source made the active and inactive calls.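 Rule for the calls: active = peak hERG channel inhibition above 30% at some tested dose, together with a fitted dose response curve; inactive = no hERG inhibition at any dose, or no curve.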

The target in the first assay is Voltage-gated inwardly rectifying potassium channel KCNH2 (Homo sapiens) (UniProt Q12809). The experiment in a line: KCNH2 potassium channel blockade – FluxOR Tl flux, hERG cells, CRC 2, selectivity assay for KCNK9 inhibitor project, SAR follow-up (AID 540323). To be noted: hERG-expressing cells, FluxOR thallium flux fluorescence; at 30 µM (top of the series); test wells contain dofetilide at its IC70. A general note: The hERG channel carries a current that helps repolarise heart muscle cells.
Chain of Voltage-gated inwardly rectifying potassium channel KCNH2 (Homo sapiens) (Q12809 whole entry, looked up): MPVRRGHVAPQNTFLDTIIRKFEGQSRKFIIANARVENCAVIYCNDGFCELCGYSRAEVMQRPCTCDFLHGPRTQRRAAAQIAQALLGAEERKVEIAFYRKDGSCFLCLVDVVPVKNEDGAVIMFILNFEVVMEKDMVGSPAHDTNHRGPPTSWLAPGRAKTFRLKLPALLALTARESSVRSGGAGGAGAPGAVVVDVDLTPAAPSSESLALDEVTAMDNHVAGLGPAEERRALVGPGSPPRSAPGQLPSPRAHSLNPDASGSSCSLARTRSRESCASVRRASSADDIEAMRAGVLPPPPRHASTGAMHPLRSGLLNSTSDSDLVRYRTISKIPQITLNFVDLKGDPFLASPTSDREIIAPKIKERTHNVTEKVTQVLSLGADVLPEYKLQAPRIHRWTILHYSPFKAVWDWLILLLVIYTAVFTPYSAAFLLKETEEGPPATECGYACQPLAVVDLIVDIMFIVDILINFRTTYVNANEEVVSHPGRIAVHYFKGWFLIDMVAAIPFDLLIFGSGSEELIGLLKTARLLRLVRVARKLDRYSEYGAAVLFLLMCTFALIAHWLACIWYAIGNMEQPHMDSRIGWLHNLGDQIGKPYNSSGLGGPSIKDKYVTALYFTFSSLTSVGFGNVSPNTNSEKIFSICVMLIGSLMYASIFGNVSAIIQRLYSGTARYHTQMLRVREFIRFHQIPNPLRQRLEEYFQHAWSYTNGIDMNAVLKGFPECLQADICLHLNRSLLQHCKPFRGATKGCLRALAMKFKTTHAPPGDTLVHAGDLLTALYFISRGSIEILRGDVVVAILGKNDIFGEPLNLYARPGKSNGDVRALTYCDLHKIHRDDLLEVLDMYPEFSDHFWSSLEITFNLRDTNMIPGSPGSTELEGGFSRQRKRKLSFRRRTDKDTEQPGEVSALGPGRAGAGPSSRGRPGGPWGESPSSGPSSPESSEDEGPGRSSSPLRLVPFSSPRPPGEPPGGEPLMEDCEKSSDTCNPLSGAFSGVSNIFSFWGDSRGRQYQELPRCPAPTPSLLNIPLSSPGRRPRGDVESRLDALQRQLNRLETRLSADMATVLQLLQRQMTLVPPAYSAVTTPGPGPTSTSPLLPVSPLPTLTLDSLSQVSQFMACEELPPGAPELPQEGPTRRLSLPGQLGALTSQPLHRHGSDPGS
Regarding `CCOc1ccc(NC(=O)c2cccc(NC(=O)C3CCCC3)c2)cc1`, the “fluorescence ratio, lower = inhibition” value was “inactive”.
With `Cc1cccc(-c2n[nH]c(=S)n2C(C)C2CC3CCC2C3)c1` (stereo not drawn), the “fluorescence ratio, lower = inhibition” value was “inactive”.
Still for that read-out and setting: the entry for `CCOc1ccccc1C(=O)Nc1cccc(NC(=O)c2ccccc2OC)c1` is “inactive”; for `O=C(Nc1cccc(NC(=O)c2ccc(F)cc2)c1)c1ccccc1` it is “inactive”; for `O=C(Nc1cccc(NC(=O)c2cccc(C(F)(F)F)c2)c1)c1ccccc1` it is “inactive”.
As for `CCOc1ccccc1NC(=O)c1cccc(NC(=O)CC2CCCC2)c1`, the “fluorescence ratio, lower = inhibition” value is “inactive”.
As to `COc1ccccc1C(=O)Nc1cccc(NC(=O)c2cccc(C)c2)c1`, the “fluorescence ratio, lower = inhibition” value is “inactive”.
`COc1ccccc1NC(=O)c1cccc(NC(=O)c2ccccc2)c1`: the “fluorescence ratio, lower = inhibition” value is “inactive”.
The same measure, in the same setting: then `CC(C1CC2CCC1C2)n1c(C2CCOC2)n[nH]c1=S` (stereo not drawn), with “inactive”; and `CC(c1ccccc1)n1c(-c2ccco2)n[nH]c1=S` (stereo not drawn), with “inactive”.
Take `Cc1ccccc1-c1n[nH]c(=S)n1C(C)C1CC2CCC1C2` (stereo not drawn): the “fluorescence ratio, lower = inhibition” value is “inactive”.
For the compound `CCOc1ccccc1NC(=O)c1cccc(NC(=O)c2cccc(C(F)(F)F)c2)c1`, the “fluorescence ratio, lower = inhibition” value is “inactive”.
On to `CCOc1ccccc1NC(=O)c1cccc(NC(=O)c2ccc(C(F)(F)F)cc2)c1`, for which the “fluorescence ratio, lower = inhibition” value was “inactive”.
The same measure, in the same setting: the entry for `CCOc1ccccc1C(=O)Nc1cccc(NC(=O)C2CCCC2)c1` is “inactive”; for `COc1ccccc1NC(=O)c1cccc(NC(=O)c2ccccc2C(F)(F)F)c1` it is “inactive”.
For `O=C(Nc1cccc(NC(=O)c2ccccn2)c1)c1ccccc1`, the “fluorescence ratio, lower = inhibition” value is “inactive”.
For the compound `COc1cccc(C(=O)Nc2cccc(NC(=O)c3cccc(C)c3)c2)c1`, the “fluorescence ratio, lower = inhibition” value is “inactive”.
With `CC(C)(C)c1ccc(C(=O)Nc2cccc(NC(=O)c3ccccc3)c2)cc1`, the “fluorescence ratio, lower = inhibition” value was “inactive”.
For `CCOc1ccccc1NC(=O)c1cccc(NC(=O)c2ccc(OC)cc2)c1`, the “fluorescence ratio, lower = inhibition” value was “inactive”.
On the same count and under the same terms, the entry for `Cc1cccc(C(=O)Nc2cccc(NC(=O)c3ccc(Cl)cc3)c2)c1` is “inactive”.
As to `CCOc1ccccc1NC(=O)c1cccc(NC(=O)c2cccc(C)c2)c1`, the “fluorescence ratio, lower = inhibition” value was “inactive”.
Turning to `CC(C1CC2CCC1C2)n1c(-c2ccsc2)n[nH]c1=S` (stereo not drawn), the “fluorescence ratio, lower = inhibition” value was “inactive”.
As to `O=C(Nc1cccc(NC(=O)c2cccc(Cl)c2)c1)c1ccccc1`, the “fluorescence ratio, lower = inhibition” value was “inactive”.
With `Cc1cccc(C(=O)Nc2cccc(NC(=O)c3ccncc3)c2)c1`, the “fluorescence ratio, lower = inhibition” value was “inactive”.
The same measure, in the same setting: then `O=C(Nc1ccccc1Cl)c1cccc(NC(=O)C2CCCC2)c1`, with “inactive”; and `CCOc1ccccc1NC(=O)c1cccc(NC(=O)c2ccc(Cl)cc2)c1`, with “inactive”; and `CCOc1ccccc1NC(=O)c1cccc(NC(=O)c2ccccc2)c1`, with “inactive”.
As to `COc1ccccc1NC(=O)c1cccc(NC(=O)c2ccccc2OC)c1`, the “fluorescence ratio, lower = inhibition” value was “inactive”.
`Cc1ccc(C(=O)Nc2cccc(NC(=O)c3ccccc3)c2)cc1`: the “fluorescence ratio, lower = inhibition” value is “inactive”.
`CC(C1CC2CCC1C2)n1c(-c2ccco2)n[nH]c1=S` (stereo not drawn): the “fluorescence ratio, lower = inhibition” value is “inactive”.
As for `COc1ccc(C(=O)Nc2cccc(NC(=O)c3cccc(C)c3)c2)cc1`, the “fluorescence ratio, lower = inhibition” value was “inactive”.
With `O=C(Nc1cccc(NC(=O)c2cccnc2)c1)c1ccccc1`, the “fluorescence ratio, lower = inhibition” value is “inactive”.
Turning to `CCOc1ccccc1NC(=O)c1cccc(NC(=O)c2cccc(Cl)c2)c1`, the “fluorescence ratio, lower = inhibition” value was “inactive”.
In the case of `O=C(Nc1cccc(NC(=O)c2cccs2)c1)c1ccccc1`, the “fluorescence ratio, lower = inhibition” value is “inactive”.
As to `CN(C)c1ccc(C(=O)Nc2cccc(NC(=O)c3ccccc3)c2)cc1`, the “fluorescence ratio, lower = inhibition” value was “inactive”.
Consider `Cc1cccc(C(=O)Nc2cccc(NC(=O)c3ccccc3C)c2)c1`, for which the “fluorescence ratio, lower = inhibition” value was “inactive”.
On the same count and under the same terms, the entry for `COc1ccc(-c2n[nH]c(=S)n2C(C)C2CC3CCC2C3)cc1` (stereo not drawn) is “inactive”; for `CC(C1CC2CCC1C2)n1c(-c2ccoc2)n[nH]c1=S` (stereo not drawn) it is “inactive”; for `CCOc1ccccc1NC(=O)c1cccc(C(=O)NC2CCCC2)c1` it is “inactive”.
Turning to `Cc1cccc(C(=O)Nc2cccc(NC(=O)c3ccco3)c2)c1`, the “fluorescence ratio, lower = inhibition” value was “inactive”.
For `CC(c1ccco1)n1c(-c2ccoc2)n[nH]c1=S` (stereo not drawn), the “fluorescence ratio, lower = inhibition” value was “inactive”.
In the case of `CCOc1ccccc1NC(=O)c1cccc(NC(=O)c2ccccc2OC(F)(F)F)c1`, the “fluorescence ratio, lower = inhibition” value is “inactive”.
On to `CC(C1CC2CCC1C2)n1c(-c2ccccc2)n[nH]c1=S` (stereo not drawn), for which the “fluorescence ratio, lower = inhibition” value was “inactive”.
Turning to `Cc1cccc(C(=O)Nc2cccc(NC(=O)c3ccccc3C(C)C)c2)c1`, the “fluorescence ratio, lower = inhibition” value was “inactive”.
Same read-out and setting: then `CCOc1ccccc1C(=O)Nc1cccc(NC(=O)c2cccc(C)c2)c1`, with “inactive”.
For `COc1ccccc1C(=O)Nc1cccc(NC(=O)c2ccccc2OC(F)(F)F)c1`, the “fluorescence ratio, lower = inhibition” value is “inactive”.
Regarding `COc1ccccc1C(=O)Nc1cccc(NC(=O)c2ccccc2C)c1`, the “fluorescence ratio, lower = inhibition” value is “inactive”.
In the case of `CCOc1ccccc1NC(=O)c1cccc(NC(=O)C2CCCCC2)c1`, the “fluorescence ratio, lower = inhibition” value was “inactive”.
Consider `COc1ccccc1C(=O)Nc1cccc(NC(=O)c2ccccc2)c1`, for which the “fluorescence ratio, lower = inhibition” value was “inactive”.
As for `O=C(Nc1cccc(NC(=O)c2ccco2)c1)c1ccccc1`, the “fluorescence ratio, lower = inhibition” value is “inactive”.
As to `CC(C1CC2CCC1C2)n1c(-c2cccc(Cl)c2)n[nH]c1=S` (stereo not drawn), the “fluorescence ratio, lower = inhibition” value is “inactive”.
Turning to `Cc1cccc(C(=O)Nc2cccc(NC(=O)c3cccs3)c2)c1`, the “fluorescence ratio, lower = inhibition” value was “inactive”.
As to `COc1ccccc1NC(=O)c1cccc(NC(=O)C2CCCCC2)c1`, the “fluorescence ratio, lower = inhibition” value was “inactive”.
Regarding `Cc1ccc(-c2n[nH]c(=S)n2C(C)C2CC3CCC2C3)cc1` (stereo not drawn), the “fluorescence ratio, lower = inhibition” value is “inactive”.
Same read-out and setting: the entry for `CCOc1ccccc1NC(=O)c1cccc(NC(=O)CC2CCCCC2)c1` is “inactive”; for `COc1ccccc1C(=O)Nc1cccc(NC(=O)c2ccccc2OC)c1` it is “inactive”.
Regarding `COc1ccccc1-c1n[nH]c(=S)n1C(C)C1CC2CCC1C2` (stereo not drawn), the “fluorescence ratio, lower = inhibition” value is “inactive”.
Consider `Cc1cccc(S(=O)(=O)Nc2cccc(NC(=O)c3ccccc3)c2)c1`, for which the “fluorescence ratio, lower = inhibition” value was “inactive”.
Turning to `Cc1cccc(C(=O)Nc2cccc(NC(=O)c3ccccc3OC(F)(F)F)c2)c1`, the “fluorescence ratio, lower = inhibition” value was “inactive”.
As for `COc1cccc(OC)c1C(=O)Nc1cccc(NC(=O)c2cccc(C)c2)c1`, the “fluorescence ratio, lower = inhibition” value was “inactive”.
Consider `Cc1cccc(C(=O)Nc2cccc(NC(=O)C3CCCCC3)c2)c1`, for which the “fluorescence ratio, lower = inhibition” value is “inactive”.
Still for that read-out and setting: the entry for `O=C(Nc1cccc(NC(=O)c2ccccc2C(F)(F)F)c1)c1ccccc1` is “inactive”; for `Cc1cccc(C(=O)Nc2cccc(NC(=O)c3ccccc3C(F)(F)F)c2)c1` it is “inactive”.
As for `O=C(Nc1cccc(NC(=O)c2cccc(F)c2)c1)c1ccccc1`, the “fluorescence ratio, lower = inhibition” value is “inactive”.
Take `CCOc1ccccc1NC(=O)c1cccc(NC(=O)c2cccc(OC)c2)c1`: the “fluorescence ratio, lower = inhibition” value is “inactive”.
As for `CC(C)n1c(-c2ccco2)n[nH]c1=S`, the “fluorescence ratio, lower = inhibition” value was “inactive”.
Regarding `CCOc1ccccc1NC(=O)c1cccc(NC(=O)c2ccccc2C)c1`, the “fluorescence ratio, lower = inhibition” value was “inactive”.
Same read-out and setting: the entry for `Cc1cccc(C(=O)Nc2cccc(NC(=O)c3ccc(N(C)C)cc3)c2)c1` is “inactive”.
On to `CCOc1ccccc1NC(=O)c1cccc(NC(=O)C2CC2)c1`, for which the “fluorescence ratio, lower = inhibition” value is “inactive”.
The same measure, in the same setting: the entry for `O=C(Nc1cccc(NC(=O)c2ccoc2)c1)c1ccccc1` is “inactive”.
As for `CCOc1ccccc1C(=O)Nc1cccc(NC(=O)c2ccccc2C(F)(F)F)c1`, the “fluorescence ratio, lower = inhibition” value is “inactive”.
For the compound `CCOc1ccccc1NC(=O)c1cccc(NC(=O)c2ccccc2Cl)c1`, the “fluorescence ratio, lower = inhibition” value is “inactive”.
Take `S=c1[nH]nc(-c2ccco2)n1CC1CCCCC1`: the “fluorescence ratio, lower = inhibition” value was “inactive”.
On the same count and under the same terms, the entry for `CC(C1CC2CCC1C2)n1c(-c2ccccc2Cl)n[nH]c1=S` (stereo not drawn) is “inactive”; for `O=C(Nc1cccc(NC(=O)c2ccc(Cl)cc2)c1)c1ccccc1` it is “inactive”; for `CCOc1ccccc1NC(=O)c1cccc(NC(=O)C2CCCC2)c1` it is “inactive”.
As to `CCOc1ccccc1NC(=O)c1cccc(NC(=O)c2ccccc2C(F)(F)F)c1`, the “fluorescence ratio, lower = inhibition” value is “inactive”.
As to `O=C(Nc1cccc(NC(=O)c2ccccc2)c1)c1ccccc1`, the “fluorescence ratio, lower = inhibition” value was “inactive”.
In the case of `CCOc1ccccc1NC(=O)c1cccc(NC(=O)C2CCOC2)c1` (stereo not drawn), the “fluorescence ratio, lower = inhibition” value is “inactive”.
As to `O=C(Nc1cccc(NC(=O)C2CCCCC2)c1)c1ccccc1`, the “fluorescence ratio, lower = inhibition” value is “inactive”.
The same measure, in the same setting: then `CCOc1ccccc1NC(=O)c1cccc(NC(=O)C(C)(C)C)c1`, with “inactive”.
As to `CCOc1ccccc1NC(=O)c1cccc(NC(=O)c2ccc(C)cc2)c1`, the “fluorescence ratio, lower = inhibition” value is “inactive”.

Still in this assay, the particulars now being: hERG-expressing cells, FluxOR thallium flux fluorescence; test wells contain dofetilide at its IC70.
As for `Cc1cccc(C(=O)Nc2cccc(NC(=O)c3cccc(C)c3)c2)c1`, the pIC50 (commonly −log10 of the IC50, conventionally taken in molar units) is 4.91.
